Data reported in US20250040554A1, “NEW USES OF PHENMEDIPHAM AND HERBICIDAL COMBINATIONS COMPRISING PHENMEDIPHAM” (BAYER AKTIENGESELLSCHAFT, priority 2021, published 2025).

Columns and labels:
[1] = test system: soybean (Glycine max, GLXMA); experiment: Greenhouse selectivity trial, post-emergence, soybean; type: in vivo; settings: 8 DAA
From the text: (§1) The respective (combinations of) materials were applied to weed plants in the greenhouse or in the field at the respective growth stage indicated hereinafter for the different weed species mentioned below. The respective (combinations of) active ingredients were also applied to corn, cotton and soybean crop plants, and the selectivity (damage) in these crop plants rated (assessed).
(§2) Visual scoring of the damage to the trial plants took place after the time mentioned in the respective Table—indicated in number of Days After Application (DAA). Damage and development of all above-ground parts of the respective plants was recorded. Visual rating was done on a percentage scale in relation to the untreated control (100%=all plants dead; 50%=green plant biomass reduced by 50%, and 0%=no discernible difference=like control plot).
(§3) The trials in the greenhouse were sprayed with an application volume of 300 L/ha with an automated track sprayer. The plots in the field were sprayed with an application volume of 140 L/ha with a hand held spray boom.
(§4) In greenhouse selectivity trials and trials herbicidal activity trials against weed plants were investigated in post-emergence application of the respective material(s).
(§5) Phenmedipham was applied at varying application rates (Dose Rate) to the crop plants of corn (Zea mays subsp. amylacea, ZEAMA), soybean (Glycine max, GLXMA) and cotton (Gossypium hirsutum, GOSHI) at a BBCH growth stage of the plants of BBCH 13 and the crop safety (crop injury, damage) assessed. The results are shown in Table 1 as the % damage when assessed 8 days after application (8 DAA).
(§6) In all the selectivity trials of Table 1 the adjuvant Mero® (rapeseed oil methyl ester) was added to the respective spray mixture in an amount corresponding to 1 L/ha.

[2] = test system: corn (Zea mays subsp. amylacea, ZEAMA); experiment: Greenhouse selectivity trial, post-emergence, corn; type: in vivo; settings: 8 DAA
From the text: as §1, §2, §3, §4, §5, §6

[3] = test system: cotton (Gossypium hirsutum, GOSHI); experiment: Greenhouse selectivity trial, post-emergence, cotton; type: in vivo; settings: 8 DAA
From the text: as §1, §2, §3, §4, §5, §6

soybean (GLXMA) = experiment: Damage in soybean in the field trials of Tables 4a to 4e; type: in vivo, Glycine max; settings: PMP applied to GLXMA at growth stage BBCH 14, field trials of Tables 4a to 4e, each case
Experimental: In the field trials of Tables 4a to 4e also the damage in soybean was assessed when PMP was applied to GLXMA at growth stage BBCH 14. The damage observed in each case was agronomically acceptable, i.e. below 15%.

COC(=O)Nc1cccc(OC(=O)Nc2cccc(C)c2)c1 [PMP, 3-[(methoxyformyl)amino]phenyl (3-methylphenyl)carbamate] was tested, and the “% damage GLXMA (soybean)” value ([1]; 12.5 g/ha) was 2%, the “% damage GLXMA (soybean)” value ([1]; 25 g/ha) was 3% and the “% damage GLXMA (soybean)” value ([1]; 75 g/ha) was 0%. For the same compound, the “% damage GLXMA (soybean)” value ([1]; 125 g/ha) was 5%, the “% damage GLXMA (soybean)” value ([1]; 200 g/ha) was 18% and the “% damage GLXMA (soybean)” value ([1]; 300 g/ha) was 20%. The “% damage ZEAMA (corn)” value ([2]; 12.5 g/ha) was 0%, the “% damage ZEAMA (corn)” value ([2]; 25 g/ha) was 0% and the “% damage ZEAMA (corn)” value ([2]; 75 g/ha) was 7%. The “% damage ZEAMA (corn)” value ([2]; 125 g/ha) was 0%, the “% damage ZEAMA (corn)” value ([2]; 200 g/ha) was 15% and the “% damage ZEAMA (corn)” value ([2]; 300 g/ha) was 30%. The “% damage GOSHI (cotton)” value ([3]; 12.5 g/ha) was 0%, the “% damage GOSHI (cotton)” value ([3]; 25 g/ha) was 0% and the “% damage GOSHI (cotton)” value ([3]; 75 g/ha) was 3%. The “% damage GOSHI (cotton)” value ([3]; 125 g/ha) was 6%, the “% damage GOSHI (cotton)” value ([3]; 200 g/ha) was 6% and the “% damage GOSHI (cotton)” value ([3]; 300 g/ha) was 14%. For the same compound, the damage in soybean (soybean (GLXMA)) was “below 15%”.
